PubChem BioAssay (NCI)
“And” between values parts separate entries of the source, which are not always exact repeats. Equal values may be shown once.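 Each compound was tested at five concentrations against cells in 96-well plates for 48 hours. Here, GI50 denotes the concentration required for 50% inhibition of growth. TGI: total growth inhibition.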

Assays:
Assay in all cases: NCI tumour cell line growth inhibition, 48 h
SNB-78 CNS = system: SNB-78 CNS
KM20L2 colon = system: KM20L2 colon
DMS 114 small cell lung = system: DMS 114 small cell lung
M19-MEL melanoma = system: M19-MEL melanoma
DLD-1 colon = system: DLD-1 colon
MDA-N = system: MDA-N
PC-3 prostate = system: PC-3 prostate
SN12K1 renal = system: SN12K1 renal
P388/ADR leukemia = system: P388/ADR leukemia
P388 leukemia = system: P388 leukemia

| Compound | TGI (SNB-78 CNS) | TGI (KM20L2 colon) | TGI (DMS 114 small cell lung) | TGI (M19-MEL melanoma) | TGI (DLD-1 colon) | TGI (MDA-N) | TGI (PC-3 prostate) | TGI (SN12K1 renal) | TGI (P388/ADR leukemia) | TGI (P388 leukemia) | GI50 (PC-3 prostate) |
| --- | --- | --- | --- | --- | --- | --- | --- | --- | --- | --- | --- |
| CCN(CC)CCn1ccc(=O)c2cc3c(=O)ccn(CCN(CC)CC)c3c(C)c21 | 26.9 µM | 15.4 µM | 27.6 µM | 25.2 µM | 7.83 µM | 18 µM | 15.9 µM | – | – | – | – |
| N#CC(C(=O)/C(=N/NC(=O)c1ccccc1O)C(C#N)c1ccc(Cl)cc1)c1ccc(Cl)cc1 (configuration not stated) | > 100 µM | 27.2 µM | 69.7 µM | 55.3 µM | 33 µM | – | – | – | – | – | – |
| COc1cccc(NC(=O)CC(=O)N2N=C(N(CCC#N)c3ccc(Cl)cc3)CC2c2ccccc2)c1 (configuration not stated) | > 100 µM | > 100 µM | > 100 µM | > 100 µM | > 100 µM | – | – | – | – | – | – |
| N#C/C(=C1\OC(=O)C(c2ccc(Br)cc2)=C1O)c1ccc(Br)cc1 | 28.2 µM | 31.5 µM | 25.9 µM | 31.1 µM | 34.6 µM | – | – | – | – | – | – |
| CN(C(=O)C12C3C4C5C3C1(C(=O)O)C5C42)C(C)(C)C (configuration not stated) | > 100 µM | > 100 µM | 72.6 µM | > 100 µM | 55.2 µM | – | – | – | – | – | – |
| CC1=NOC(=O)/C1=C/c1ccccc1O | > 100 µM | > 100 µM | > 100 µM | > 100 µM | > 100 µM | – | – | – | – | – | – |
| CC(=O)NC(CCCNCc1ccccc1)C(=O)NCc1ccccc1 (configuration not stated) | > 100 µM | > 100 µM | > 100 µM | > 100 µM | > 100 µM | – | – | – | – | – | – |
| O=C(O)c1ccc([Se][Se]c2ccc(C(=O)O)cc2)cc1 | 52.4 µM | > 100 µM | 54 µM | 40.5 µM | > 100 µM | – | – | – | – | – | – |
| CC1=NCCc2c1[nH]c1cc(O)ccc21 | > 100 µM | > 100 µM | > 100 µM | > 100 µM | > 100 µM | – | – | – | – | – | – |
| CNC(=O)OCc1nc(SC2CCCCO2)n(C)c1COC(=O)NC (configuration not stated) | > 100 µM | > 100 µM | > 100 µM | > 100 µM | > 100 µM | – | – | > 100 µM | > 100 µM | > 100 µM | – |
| CCCCCCCCCc1cc(=O)c2ccc(OCc3ccccc3)cc2o1 | > 100 µM | > 100 µM | > 100 µM | > 100 µM | > 100 µM | – | – | – | – | – | – |
| COC(=O)CCC(NC(=S)N/N=C(\C)c1nccs1)C(=O)OC (configuration not stated) | > 100 µM | > 100 µM | 57.5 µM | > 100 µM | > 100 µM | – | – | – | – | – | – |
| COc1cc(C2c3cc4c(cc3[C@@H](Nc3ccc(C#N)cc3)C3COC(=O)[C@H]23)OCO4)cc(OC)c1O (some centres not stated) | 75 µM | 75 µM | 4.14 µM | – | 3.51 µM | 18.7 µM and > 100 µM | 50 µM and > 100 µM | 3.94 µM | 2.11 µM | 0.832 µM | 2.81 µM |
| O=C(c1ccc(F)cc1)c1cccc(C(=O)c2ccc(F)cc2)n1 | > 58.1 µM | > 100 µM | 96.4 µM | > 100 µM | > 100 µM | > 100 µM | > 100 µM | – | – | – | – |
| CC(C)C(=O)Nc1nc2nc[nH]c2c(=O)[nH]1 | > 100 µM | > 100 µM | > 100 µM | > 100 µM | > 100 µM | – | – | – | – | – | – |
| NC(=S)N/N=C(/CC(=O)c1ccccc1)C(=O)Nc1ccc(Cl)c(Cl)c1 | > 100 µM | > 100 µM | > 100 µM | > 100 µM | > 100 µM | – | – | – | – | – | – |
| CCCCCCCCCCCCOC(=S)NCCCC | 88.4 µM | 39.5 µM | 37.7 µM | > 100 µM | > 100 µM | – | – | – | – | – | – |
| COCCN1C2=CCCCC2=Nc2c1nc(N)[nH]c2=O | > 100 µM | > 100 µM | > 100 µM | > 100 µM | > 100 µM | – | – | – | – | – | – |
| C=C1C(=O)O[C@H]2[C@H]1[C@H](OC(=O)/C(C)=C\C)CC(=C)[C@@H]1[C@H](O)[C@H]3O[C@@]3(C)[C@@]12O | > 100 µM | > 100 µM | > 100 µM | > 100 µM | > 100 µM | – | – | – | – | – | – |
| c1cc(-c2cn3ccsc3n2)ccn1 | > 100 µM | > 31.6 µM | > 100 µM | > 100 µM | > 100 µM | – | – | – | – | – | – |
| Cc1ccc(C(=O)O/N=C2/CCC/C2=C\c2ccccc2)cc1 | > 100 µM | > 100 µM | > 100 µM | > 100 µM | > 100 µM | – | – | – | – | – | – |
